Data as given in patent US6894168B2, “Carbamoyl tetrahydropyridine derivatives” (Taisho Pharmaceutical Co., Ltd., priority 1999, dated 2005).

Molecular target: T1, CRF receptor (Rattus norvegicus, UniProt P35353)
T1 construct: The frontal cortex of rats was homogenized in a 50 mM Tris hydrochloric acid buffer; from tissue; host or cells: rat frontal cortex membranes
T1 sequence (P35353 24-415): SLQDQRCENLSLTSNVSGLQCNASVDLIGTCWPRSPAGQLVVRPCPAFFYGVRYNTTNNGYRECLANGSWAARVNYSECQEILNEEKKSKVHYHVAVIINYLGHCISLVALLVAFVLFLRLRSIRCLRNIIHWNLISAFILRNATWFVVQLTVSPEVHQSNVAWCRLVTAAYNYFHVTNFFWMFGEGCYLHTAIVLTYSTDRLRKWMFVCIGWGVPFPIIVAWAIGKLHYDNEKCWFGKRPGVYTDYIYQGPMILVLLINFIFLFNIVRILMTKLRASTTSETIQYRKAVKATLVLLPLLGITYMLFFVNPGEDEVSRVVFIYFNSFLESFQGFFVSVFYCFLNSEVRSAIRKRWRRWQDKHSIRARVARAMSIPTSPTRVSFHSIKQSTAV
Test: CRF receptor binding experiment (125I-CRF, rat frontal cortex membranes)
Settings: frontal cortex membranes of rats 0.3 mg protein/ml; 125I-CRF 0.2 nM; 2 hours at 25° C.; read-out: IC50 (concentration of the test agent for controlling 50% of the binding of 125I-CRF)
Description: Experimental Example [CRF receptor binding experiment]
As a receptor preparation, the frontal cortex membranes of rats were employed.
As a ^125I labeled ligand, ^125I-CRF was employed.
The binding reaction employing a ^125I labeled ligand was carried out in the following method as described in The Journal of Neuroscience, 7, 88 (1987).
Preparation of the receptor membrane preparations: The frontal cortex of rats was homogenized in a 50 mM Tris hydrochloric acid buffer (pH 7.0) containing 10 mM MgCl2 and 2 mM EDTA, and subsequently, the homogenized mixture was centrifuged at 48,000×g. The precipitate was washed once with the Tris hydrochloric acid buffer. The precipitate was suspended in a 50 mM tris hydrochloric acid buffer (pH 7.0) containing 10 mM MgCl2, 2 mM EDTA, 0.1% bovine serum albumin, and 100 kalliklein unit/ml aprotinin, to produce a membrane preparation.
CRF receptor binding experiment: The membrane preparation (0.3 mg protein/ml), ^125I-CRF (0.2 nM), and a test agent were reacted for 2 hours at 25° C. […] After completion of the washing, the radioactivity of the filter paper was measured by a gamma counter.
The binding quantity obtained when the reaction was carried out in the presence of 1 μM CRF was determined as nonspecific binding of ^125I-CRF, while the difference between the total binding and the nonspecific binding was determined as a specific binding. […]

IC50: ≤ 100 nM
Compound: CSc1cc(C(C)C)ccc1-n1cc(C)c2c(N3CC=C(C(N)=O)CC3)nc(C)nc21 [Com. No. 07, 4-(4-carbamoyl-1,2,3,6-tetrahydropyridin-1-yl)-2,5-dimethyl-7-(4-isopropyl-2-methylthiophenyl)-7H-pyrrolo[2,3-d]pyrimidine]
